Measurements from ChEMBL document CHEMBL1201862, “PubChem BioAssay data set” (2004).
Values joined by “and” are separate entries in the source; they are usually repeats but may differ in a detail not shown here. Equal values may be shown once. Active and inactive are the calls of the source.

Experiments:
Cytochrome P450 1A2 = molecular target: T1, Cytochrome P450 1A2 (Homo sapiens, UniProt P05177);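 also: PubChem cytochrome P450 panel assay, CYP1A2 panel member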
T1 sequence (P05177 whole entry): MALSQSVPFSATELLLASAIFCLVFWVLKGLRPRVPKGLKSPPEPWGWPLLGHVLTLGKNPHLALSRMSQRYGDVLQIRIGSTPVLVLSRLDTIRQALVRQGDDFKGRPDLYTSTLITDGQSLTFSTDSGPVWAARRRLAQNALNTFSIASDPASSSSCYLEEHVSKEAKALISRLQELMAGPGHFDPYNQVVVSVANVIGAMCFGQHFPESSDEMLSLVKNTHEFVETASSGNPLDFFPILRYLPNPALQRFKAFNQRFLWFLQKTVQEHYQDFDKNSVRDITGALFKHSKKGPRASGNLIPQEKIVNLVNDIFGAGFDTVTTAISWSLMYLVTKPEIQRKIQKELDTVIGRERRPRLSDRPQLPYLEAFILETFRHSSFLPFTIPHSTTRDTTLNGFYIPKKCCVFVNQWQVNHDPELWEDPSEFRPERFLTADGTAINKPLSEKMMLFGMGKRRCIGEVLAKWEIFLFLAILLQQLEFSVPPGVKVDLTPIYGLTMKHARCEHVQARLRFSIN

Cytochrome P450 2C9 = Cytochrome P450 2C9 (Homo sapiens, UniProt P11712)
[1] = molecular target: T2, Rac GTPase-activating protein 1 (Homo sapiens, UniProt Q9H0H5); test: MgcRacGAP GTPase-activating activity inhibitors, confirmation, biochemical, ADP Hunter fluorescence, primary and confirmatory (AID 624330); type: functional
T2 sequence (Q9H0H5 whole entry): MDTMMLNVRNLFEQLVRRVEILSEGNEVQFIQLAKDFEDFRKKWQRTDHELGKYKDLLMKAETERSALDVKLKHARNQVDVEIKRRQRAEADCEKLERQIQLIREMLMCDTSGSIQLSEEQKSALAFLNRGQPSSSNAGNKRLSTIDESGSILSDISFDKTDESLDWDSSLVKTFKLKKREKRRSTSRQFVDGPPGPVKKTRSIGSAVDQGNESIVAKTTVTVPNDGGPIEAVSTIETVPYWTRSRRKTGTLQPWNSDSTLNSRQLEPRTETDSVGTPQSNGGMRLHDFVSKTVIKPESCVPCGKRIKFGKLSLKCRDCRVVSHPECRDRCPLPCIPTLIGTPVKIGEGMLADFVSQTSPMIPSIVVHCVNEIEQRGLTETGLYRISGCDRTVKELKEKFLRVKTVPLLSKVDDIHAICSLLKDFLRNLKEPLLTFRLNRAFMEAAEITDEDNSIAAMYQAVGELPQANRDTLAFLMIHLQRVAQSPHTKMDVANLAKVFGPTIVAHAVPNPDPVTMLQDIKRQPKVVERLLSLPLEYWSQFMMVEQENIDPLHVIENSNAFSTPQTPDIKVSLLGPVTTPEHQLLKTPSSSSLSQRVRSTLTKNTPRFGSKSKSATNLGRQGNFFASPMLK

Cytochrome P450 2C19 = Cytochrome P450 2C19 (Homo sapiens, UniProt P33261); test: Cytochrome panel assay with activity outcomes. Panel member name: p450-cyp2c19 Compounds with AC50 equal or less than 10 uM are considered active; type: functional
Cytochrome P450 3A4 = Cytochrome P450 3A4 (Homo sapiens, UniProt P08684);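 also: CYP3A4 tested as one member of a cytochrome P450 panel screen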
[2] = inhibitors of firefly luciferase expression or activity, dose response, H4 neuroglioma cells, luminescence (AID 1990); type: functional, cell-based
[3] = Luminescence Cell-Based Dose Response HTS to Identify Inhibitors of 5'UTR Stem-Loop Driven Prion Protein mRNA Translation in H4 Neuroglioblastoma Cells. [Related pubchem assays: 1827 (Project Summary), 1813 (Primary HTS)]; type: functional
[4] = inhibitors of SNCA 5'UTR-driven reporter translation, confirmation, H4 neuroglioma cells, luminescence (AID 1988); type: functional, cell-based
[5] = system: Streptococcus sp. 'group A'; test: growth inhibition of control SK(-) GAS strain, dose response, counter-screen for streptokinase expression inhibitor project, luminescence, kanamycin, BacTiterGlo, confirmation (AID 1900); type: functional, organism-based
Streptokinase A = molecular target: T3, Streptokinase A (Streptococcus pyogenes serotype M1, UniProt P10520); test: S. pyogenes streptokinase expression inhibitors, potency, dose response, plasminogen activation absorbance, OD405 (AID 1914); type: functional, Streptococcus pyogenes M1 GAS;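 also: secreted streptokinase activity via plasminogen activation per viability signal from cell pellet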
T3 sequence (P10520 whole entry): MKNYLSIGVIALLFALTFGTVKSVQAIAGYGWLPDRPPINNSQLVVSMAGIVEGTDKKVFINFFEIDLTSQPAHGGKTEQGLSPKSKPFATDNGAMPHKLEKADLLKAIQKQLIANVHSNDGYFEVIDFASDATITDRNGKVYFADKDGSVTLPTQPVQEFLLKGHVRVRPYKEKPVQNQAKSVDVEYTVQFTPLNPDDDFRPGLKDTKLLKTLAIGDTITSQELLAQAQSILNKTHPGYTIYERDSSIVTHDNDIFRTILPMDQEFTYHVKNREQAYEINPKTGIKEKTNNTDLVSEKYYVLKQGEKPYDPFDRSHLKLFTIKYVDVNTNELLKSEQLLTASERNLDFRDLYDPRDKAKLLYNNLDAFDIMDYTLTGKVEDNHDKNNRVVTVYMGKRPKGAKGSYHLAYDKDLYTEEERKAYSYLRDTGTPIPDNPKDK

Streptococcus = test: Group A Streptococcus viability loss, dose response, counter-screen for streptokinase expression inhibitor project, luminescence, BacTiterGlo (AID 1915); type: functional, organism-based;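 also: potency for reduction of bacterial viability or growth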
H4 = test: Luminescence Cell-Based Dose Response HTS to Identify Activators of 5'UTR Stem-Loop Driven Prion Protein mRNA Translation in H4 Neuroglioblastoma Cells. [Related pubchem assays: 1829 (Project Summary), 1814 (Primary HTS)]; type: functional; conditions: Homo sapiens

Chain of Cytochrome P450 3A4 (P08684 whole entry): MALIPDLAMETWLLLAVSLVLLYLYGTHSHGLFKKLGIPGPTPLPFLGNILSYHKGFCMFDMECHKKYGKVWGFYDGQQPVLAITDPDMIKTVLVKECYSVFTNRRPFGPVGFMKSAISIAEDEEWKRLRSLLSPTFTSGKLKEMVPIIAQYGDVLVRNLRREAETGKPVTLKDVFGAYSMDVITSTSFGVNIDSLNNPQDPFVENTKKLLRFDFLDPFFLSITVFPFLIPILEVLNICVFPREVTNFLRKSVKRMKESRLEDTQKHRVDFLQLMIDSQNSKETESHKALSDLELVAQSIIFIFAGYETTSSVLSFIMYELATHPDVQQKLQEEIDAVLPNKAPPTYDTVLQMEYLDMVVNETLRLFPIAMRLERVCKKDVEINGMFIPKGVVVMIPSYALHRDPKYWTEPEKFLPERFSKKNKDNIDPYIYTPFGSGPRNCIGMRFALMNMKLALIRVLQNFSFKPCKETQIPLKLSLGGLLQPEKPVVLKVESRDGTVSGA
Chain of Cytochrome P450 2C9 (P11712 whole entry): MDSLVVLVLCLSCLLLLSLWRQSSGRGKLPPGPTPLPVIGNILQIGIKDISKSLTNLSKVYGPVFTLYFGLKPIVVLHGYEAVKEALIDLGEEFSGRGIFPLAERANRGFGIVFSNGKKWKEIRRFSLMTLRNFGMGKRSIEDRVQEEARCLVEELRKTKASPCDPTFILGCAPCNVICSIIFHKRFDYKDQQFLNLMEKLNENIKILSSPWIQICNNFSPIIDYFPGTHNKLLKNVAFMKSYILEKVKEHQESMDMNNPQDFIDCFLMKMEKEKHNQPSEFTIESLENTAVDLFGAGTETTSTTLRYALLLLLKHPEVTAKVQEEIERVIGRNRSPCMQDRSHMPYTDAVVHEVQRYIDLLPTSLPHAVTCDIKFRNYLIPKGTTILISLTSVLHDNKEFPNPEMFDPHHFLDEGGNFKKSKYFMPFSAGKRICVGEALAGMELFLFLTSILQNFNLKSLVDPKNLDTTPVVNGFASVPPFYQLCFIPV
Chain of Cytochrome P450 2C19 (P33261 whole entry): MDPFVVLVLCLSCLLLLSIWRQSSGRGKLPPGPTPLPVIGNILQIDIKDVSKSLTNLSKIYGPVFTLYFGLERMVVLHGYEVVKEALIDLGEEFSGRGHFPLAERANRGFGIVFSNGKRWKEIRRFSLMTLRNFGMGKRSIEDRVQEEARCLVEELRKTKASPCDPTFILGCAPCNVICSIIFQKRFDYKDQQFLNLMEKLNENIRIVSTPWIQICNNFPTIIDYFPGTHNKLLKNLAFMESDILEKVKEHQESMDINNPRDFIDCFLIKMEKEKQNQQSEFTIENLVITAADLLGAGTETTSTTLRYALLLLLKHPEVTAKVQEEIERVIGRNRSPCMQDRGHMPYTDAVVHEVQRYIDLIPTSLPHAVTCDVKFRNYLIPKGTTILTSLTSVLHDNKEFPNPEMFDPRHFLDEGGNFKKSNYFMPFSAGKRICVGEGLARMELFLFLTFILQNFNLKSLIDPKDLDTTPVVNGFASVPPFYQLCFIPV

CN(Cc1ccccc1)C(=O)CC(c1ccccc1)c1cc(Cl)ccc1O (centres undefined)
AC50 (Cytochrome P450 1A2): 25.1 µM (inconclusive)

CO[C@@H]1/C=C\O[C@]2(C)Oc3c(C)c(O)c4c(O)c(c(CN5CCN(C)CC5)c(O)c4c3C2=O)NC(=O)/C(C)=C\C=C[C@@H](C)[C@@H](O)[C@H](C)[C@@H](O)[C@H](C)[C@H](OC(C)=O)[C@@H]1C
AC50 (Cytochrome P450 2C9): 6.31 µM (inconclusive)

COc1ccc(NC2CCCN(C(=O)c3ccccc3C(F)(F)F)C2)cc1 (centres undefined)
IC50 [1]: 75.2 µM (active)

CSc1nncc(-c2ccc(F)c(F)c2)n1
AC50 (Cytochrome P450 2C9): 28.2 µM (inconclusive)

O=C(COc1ccccc1)Nc1ccc(-c2nnc(-c3ccco3)o2)cc1
AC50 (Cytochrome P450 2C19; read-out: AC50): 10 µM (inconclusive)
AC50 (Cytochrome P450 2C9): 1.78 µM (inconclusive)

C=C1C(=O)O[C@@H]2[C@@H]1CC/C(C)=C\CC[C@@]1(C)O[C@H]21
AC50 (Cytochrome P450 3A4): 20 µM (inconclusive) and 12.6 µM (inconclusive)

CCOC(=O)c1oc2cc(OC(C)=O)ccc2c(=O)c1-c1ccc(OC)c(OC)c1
EC50 [2]: > 120 µM (not active)
EC50 [3]: > 120 µM (not active)
EC50 [4]: > 120 µM (not active)

CC(=O)NN1C(=O)/C(=C\c2ccc(O)cc2)SC1=S
IC50 [1]: 121 µM (active)

Fc1ccc(C(OCCN2CCN(C/C=C\c3ccccc3)CC2)c2ccc(F)cc2)cc1
AC50 (Cytochrome P450 1A2): 31.6 µM (inconclusive)
AC50 (Cytochrome P450 3A4): 15.8 µM (inconclusive)

CC(C)CN(Cc1cc(=O)oc2cc(-c3ccccc3)c(O)cc12)CC(C)C
EC50 [2]: 12.1 µM (active)
EC50 [5]: 5.29 µM (active)
EC50 [3]: > 120 µM (not active)
EC50 [4]: > 120 µM (not active)
EC50 (Streptokinase A): 2.43 µM (active)
EC50 (Streptococcus): 14.3 µM (active)

NCCCCCCNS(=O)(=O)c1cccc2ccccc12
AC50 (Cytochrome P450 1A2): 25.1 µM (inconclusive)
AC50 (Cytochrome P450 2C9): 0.2 µM (inconclusive)

COc1cccc(CN2CCN(Cc3cccc(F)c3)CC2)c1
IC50 [1]: 86 µM (active)

COc1ccc(/C=C(/C(=O)Nc2ccccc2C(=O)NC(C)C)c2ccccc2)cc1
EC50 [2]: 13.7 µM (active)
EC50 [3]: 83.5 µM (active)
EC50 [4]: 30.2 µM (active)

COc1cc(N=Nc2ccc(C(=O)N(C)C)cc2)c(C)cc1N
IC50 [1]: 52.9 µM (active)

COc1cccc(Cn2c(=O)c(CCc3ccccc3)nc3cnc(N(C)C)nc32)c1
AC50 (Cytochrome P450 3A4): 2.51 µM (inconclusive)

COc1ccc(N2CCN(C(=O)c3ccc(C[S+]([O-])c4cccc(Cl)c4)o3)CC2)cc1 (centres undefined)
IC50 [1]: 326 µM (active)

COc1ccc(C(=O)N/C(=C/c2cccs2)C(=O)NCCCn2ccnc2)cc1OC
AC50 (Cytochrome P450 2C19; read-out: AC50): 8.91 µM (inconclusive)
AC50 (Cytochrome P450 2C9): 5.01 µM (inconclusive)

CCOC(=O)c1c(C)[nH]c(C)c1C(=O)CSc1nc2ccccc2c(=O)n1-c1ccc(C)cc1
EC50 [2]: 13.4 µM (active)
EC50 [3]: > 120 µM (not active)
EC50 [4]: > 120 µM (not active)

COc1cc(OC)cc(C(=O)NC(=S)Nc2ccc(Cl)c(C(=O)O)c2)c1
AC50 (Cytochrome P450 2C9): 12.6 µM (inconclusive)

Cc1c(NC(=O)C23CC4CC(CC(C)(C4)C2)C3)c(=O)n(-c2ccccc2)n1C
AC50 (Cytochrome P450 2C19): inconclusive
AC50 (Cytochrome P450 3A4): 31.6 µM (inconclusive)

COc1ccc(C(=O)/C=C/c2ccc(O)cc2)c2c1CC(O)C(C)(C)O2 (centres undefined)
IC50 [1]: 56.9 µM (active)

ClC1(Cl)CC1Cn1c(C2CC2)nc2ccccc21 (centres undefined)
EC50 [2]: > 120 µM (not active)
EC50 [3]: > 120 µM (not active)
EC50 [4]: > 120 µM (not active)

c1ccc([C@H]2CNCc3ccccc32)cc1
AC50 (Cytochrome P450 3A4): 15.8 µM (inconclusive)

COc1cc(/C=C2/C(=N)N3OC(C)=CC3=NC2=O)ccc1OCCOc1ccc(C)cc1
AC50 (Cytochrome P450 2C19; read-out: AC50): 4.47 µM (inconclusive)
AC50 (Cytochrome P450 3A4): 11.2 µM (inconclusive)

O=C(Nc1ccccc1)c1cc([N+](=O)[O-])ccc1NC1CCCCC1
EC50 [2]: 16.4 µM (active)
EC50 [3]: > 120 µM (not active)
EC50 [4]: > 120 µM (not active)

Cc1cc(O)c(C)c(O)c1/C=N/NC(=O)c1cccnc1
IC50 [1]: 101 µM (active)

Fc1ccccc1Nc1nnc(S)s1
IC50 [1]: 54.3 µM (active)

COc1ccccc1N1CCN(Cc2cccc(Br)c2)CC1
IC50 [1]: 130 µM (active)

COc1cc(/C(C)=N/NC(=O)C(O)(c2ccccc2)c2ccccc2)ccc1O
IC50 [1]: 104 µM (active)

CCOc1ccc(OCC)c(-c2c(=O)n(OCc3ccc(C(C)(C)C)cc3)c3ccccc3[n+]2[O-])c1
AC50 (Cytochrome P450 3A4): 12.6 µM (inconclusive)

COc1ccccc1/C=C(/C(=O)OCC(=O)Nc1ccc(N(C)C)cc1)c1ccccc1
IC50 [1]: 61 µM (active)

CCc1ccc(/C=C2/C(=O)N(c3ccccc3)C(=S)N2CC(=O)OC)s1
EC50 [2]: > 120 µM (not active)
EC50 [3]: 11.2 µM (active)
EC50 [4]: 14.4 µM (active)

Oc1nc(N2CCCCCC2)nc(N2CCCCCC2)n1
AC50 (Cytochrome P450 2C19; read-out: AC50): 5.62 µM (inconclusive)
AC50 (Cytochrome P450 1A2): 22.4 µM (inconclusive)

NS(=O)(=O)c1nc(S(=O)(=O)O)c2[nH]cnc2n1
AC50 (Cytochrome P450 2C19): inconclusive
AC50 (Cytochrome P450 1A2): 5.01 µM (inconclusive)

O=C1C2CCCN2C(c2ccccc2F)N1c1ccc(Cl)cc1 (centres undefined)
AC50 (Cytochrome P450 1A2): 2 µM (inconclusive)
AC50 (Cytochrome P450 3A4): 14.1 µM (inconclusive)
AC50 (Cytochrome P450 2C9): 39.8 µM (inconclusive)

COc1ccc(C2CC(c3ccc4ccccc4c3)=NN2C(=O)COC(=O)C2CCC(=O)N2)cc1 (centres undefined)
EC50 (H4): 66.5 µM (active)

CCC/C=C(\CCC)C(NP(=O)(c1ccccc1)c1ccccc1)c1ccc(-c2ccccc2)cc1 (centres undefined)
AC50 (Cytochrome P450 1A2): 2.51 µM (inconclusive)

O=[N+]([O-])c1ccc2c(c1)N=C1O[C@H](c3c[nH]c4ccc(COc5ccccc5)cc34)C(O)=C1N2
AC50 (Cytochrome P450 2C19; read-out: AC50): 3.16 µM (inconclusive)
AC50 (Cytochrome P450 3A4): 3.16 µM (inconclusive)

CN(C)c1ccc(-c2cc(-n3ccnc3)ncn2)cc1
AC50 (Cytochrome P450 2C9): 0.794 µM (inconclusive)

COc1ccc(NC(=O)N2CC[C@@]3(CCCN(C(=O)c4cccc(F)c4)C3)C2)cc1
AC50 (Cytochrome P450 1A2): 25.1 µM (inconclusive)
AC50 (Cytochrome P450 3A4): 15.8 µM (inconclusive)

CCCCN(C)CCNC(=O)CSCc1ccc(C)cc1
IC50 [1]: 220 µM (active)

O=[N+]([O-])c1ccc2nc(N3CCNCC3)ccc2c1 [6-NITROQUIPAZINE]
AC50 (Cytochrome P450 2C19): inconclusive
AC50 (Cytochrome P450 3A4): 10 µM (inconclusive)

CCN=C(S)Nc1cc(Cl)ccc1Oc1ccccc1
EC50 [2]: > 120 µM (not active)
EC50 [3]: > 120 µM (not active)
EC50 [4]: > 120 µM (not active)

CN(C)S(=O)(=O)c1ccc(Cl)c(NC(=O)COC(=O)CN2C(=O)C3CCCCC3C2=O)c1 (centres undefined)
EC50 [2]: > 120 µM (not active)
EC50 [3]: > 120 µM (not active)
EC50 [4]: > 120 µM (not active)

O=C(Nc1cccc(OC(=O)c2cccnc2)c1)c1cccnc1
AC50 (Cytochrome P450 2C9): 28.2 µM (inconclusive)
